According to patent publication US20190314345A1, “CALCINEURIN INHIBITOR AND NON-STEROIDAL ANTI-INFLAMMATORY DRUG TO REDUCE RISK OF POST-IMAGING PANCREATITIS” (UNIVERSITY OF PITTSBURGH - OF THE COMMONWEALTH SYSTEM OF …, priority 2016, published 2019):

Assays:
Type in all cases: in vivo, mouse
[1] = test system: IL-6, GADD45B, IL-1β expression; assay: Real-time PCR gene expression from the pancreatic head; settings: RC exposure, with or without FK506 pretreatment
Description: Total RNA from the pancreatic head was obtained by homogenizing 40 mg of tissue in 2 ml of TRIzol reagent (Life Technologies; Grand Island N.Y.) at 4° C. and immediately flash frozen in liquid nitrogen. Samples were thawed on ice and centrifuged at 12,000×g for 10 min at 4° C. The supernatant was diluted with 200 μl of chloroform and centrifuged at 12,000×g for 15 min at 4° C. The upper aqueous phase was treated with 0.5 ml of isopropanol and centrifuged at 10,000×g for 10 min at 4° C. The pellet was resuspended with 150 μl of 75% ethanol and centrifuged at 7500×g for 5 min at 4° C. The pellet was air-dried and dissolved in 100 μl of nuclease-free water. Total RNA samples were used to generate cDNA using the iScript Advanced cDNA synthesis Kit (Bio Rad; Hercules, Calif.).
Quantitative real-time PCR (rtPCR) was performed to determine the relative expression of the cytokines IL-6 and IL-1β as well as the cell growth arrest and DNA-damage inducible gene GADD45B. The primer pairs for each as well as a GAPDH control were obtained as part of the PrimePCR-PreAMP SYBR Green Assay (Bio Rad; unique assay ID # qMmuCEP0054186, qMmuCID0005641, qMmuCEP0039581). rtPCR reactions were carried out in 20 μl volume reactions using the SsoAdvanced Universal Supermix SYBR Green system (Bio Rad). The reactions contained 1× SsoAdvanced Universal SYBR Green Supermix, 300 nM forward Primer, 300 nM reverse primer and 100 ng cDNA. rtPCR conditions were 95° C. for 10 sec and 60° C. for 30 sec for 35 cycles on a Bio Rad CFX96 Touch thermocycler (Bio Rad). Results for the expression of mRNA were normalized to expression of […] and are represented relative to expression levels for each of the control groups.

PEP model in mice = assay: PEP model with intraductal delivery of Cn inhibitors with the radiocontrast; settings: CsA 10 μM
Description: PEP was induced as previously described^73. Briefly, 100 μl iohexol (Omnipaque, GE Healthcare, Princeton, N.J.) was infused retrograde into the biliopancreatic duct at a rate of 20 μl/min for 5 min. Mice from the ductal manipulation (DM) group received retrograde infusion of 50 μl normal saline into pancreatic ductal at a lower rate of 10 μl/min for 5 min. Mice were euthanized 24 hr after PEP induction by CO2 inhalation and cervical dislocation. Mice from the sham group received laparotomy only. Blood was collected by retro-orbital bleed 6 h after PEP induction. […] Serum amylase was measured using a Phadebas Kit (Amersham Pharmacia, Rochester, N.Y.) according to the manufacturer's instruction. The pancreas, duodenum, and spleen were placed en bloc in a cassette in order to maintain anatomical orientation (FIG. 18A). The tissues were fixed in 4% paraformaldehyde at room temperature for 24 hr. Paraffin-embedded sections were stained with hematoxylin and eosin (HE). Ten systematically selected fields at 200× magnification were graded in a blinded fashion from the head of the pancreas, which was identified by its juxtaposition to the duodenum. […] Labelled areas within the parenchyma were marked as edema, and their surface area was calculated as a percentage of the total parenchymal area.

[2] = test system: duct manipulation (DM) model in mice; assay: Duct manipulation (DM) mild model with intraductal Cn inhibitors; settings: FK506 1 μM, CsA 10 μM
Description: PEP was induced as previously described^73. Briefly, 100 μl iohexol (Omnipaque, GE Healthcare, Princeton, N.J.) was infused retrograde into the biliopancreatic duct at a rate of 20 μl/min for 5 min. Mice from the ductal manipulation (DM) group received retrograde infusion of 50 μl normal saline into pancreatic ductal at a lower rate of 10 μl/min for 5 min. Mice were euthanized 24 hr after PEP induction by CO2 inhalation and cervical dislocation. Mice from the sham group received laparotomy only. The pancreas, duodenum, and spleen were placed en bloc in a cassette in order to maintain anatomical orientation (FIG. 18A). The tissues were fixed in 4% paraformaldehyde at room temperature for 24 hr. Paraffin-embedded sections were stained with hematoxylin and eosin (HE). Ten systematically selected fields at 200× magnification were graded in a blinded fashion from the head of the pancreas, which was identified by its juxtaposition to the duodenum. The grading score gave equal weight (from 0 to 3) for edema, inflammatory infiltration, and necrosis, as described^5. Edema indices were further delineated objectively by performing intensity thresholding using ImageJ software (NIH, Bethesda, Md.). […] Labelled areas within the parenchyma were marked as edema, and their surface area was calculated as a percentage of the total parenchymal area.

C=CC[C@@H]1/C=C(\C)C[C@H](C)C[C@H](OC)[C@H]2O[C@@](O)(C(=O)C(=O)N3CCCC[C@H]3C(=O)O[C@H](/C(C)=C/[C@@H]3CC[C@@H](O)[C@H](OC)C3)[C@H](C)[C@@H](O)CC1=O)[C@H](C)C[C@@H]2OC [FK506, tacrolimus]
gene expression of GADD45B [1]: significant reduction | gene expression of IL-1β [1]: trend toward reduction | gene expression of IL-6 [1]: significant reduction | serum amylase elevations seen with PEP (PEP model in mice; 6 hr after infusion, intraductal FK506 1 μM): reduced | reduction of severity of the moderate model of PEP (PEP model in mice; intraductal with radiocontrast, FK506 1 μM, down to sham levels): 61% | effect on mild histological damage seen with DM [2]: did not affect
